Reference: EP0039388A2, “Diagnostic method for the determination of the liver function” (Röhm Pharma GmbH, priority 1980, dated 1981)
Entries after “also recorded” stand apart in the source; their conditions may differ. Read-outs that look alike come from different tables or passages of the source.

Columns and labels:
Type in all cases: in vivo, Menschen
[1] = Plasma half-lives of TA and OH-TA-Ester after oral triamterene; settings: for half-life: human, plasma, po, read-out: Plasmahalbwertszeiten (converted)
Text: (§1) Bei dem Test wurde darauf geachtet, daß die Versuchspersonen der gleichen Altersgruppe und dem gleichen Geschlecht angehörten und eine annähernd gleiche Nierenfunktion vorlag. Während der Versuchsperiode waren sie stationär aufgenommen und unterlagen denselben Ernährungsbedingungen. Außer den unumgänglich notwendigen, wurden alle anderen Medikamente, insbesondere Diuretika vor Versuchsbeginn abgesetzt.
Die Plasmahalbwertszeiten wurden nach der Formel t50 % = [formula] berechnet, die Flächen unter den Kurven konnten mit Hilfe der Trapezregel errechnet werden.
Die Plasmaproben werden mit dem doppelten Volumen Methanol verdünnt, das ausfallende Protein ausgefällt. Vom Überstand wird ein definierter Anteil auf Kieselgel-Platten (z. B. Kieselgel-60-Fertigplatten "Merck") ohne Fluoresz.enzindi- kator aufgetragen. Anschließend wird mit dem Fließmittel Essigsäureethylester/Methanol/Ammoniak 25 %ig (60 + 30 + 10) bei Kammersättigung chromatographiert. Danach werden die Platten getrocknet und die Substanzen fluoreszenzspektroskopisch gemessen.

[2] = Urinary excretion of TA and OH-TA-Ester after oral triamterene
Text: as §1
Die Durchführung des erfindungsgemäßen diagnostischen Verfahrens kann ebenfalls mit dem Urin der Patienten erfolgen. Während einer Versuchsdauer von 5 Tagen konnte TA und der OH-TA-Ester nachgewiesen werden.
Analog kann auch die Konzentration von TA und OH-TA-Ester im Urin bestimmt werden.

[3] = Ratio of TA to OH-TA-Ester in plasma and/or urine after oral administration of triamterene (liver function test); settings: for Verhältnis des OH-TA-Esters zu TA: printed as (x):1
Text: Es wurde gefunden, daß sich Einschränkungen der Leberfunktion mit sehr geringem Aufwand und mit großer diagnostischer und analytischer Sicherheit nachweisen lassen, wenn man 2,4,7-Triamino-6-phenylpteridin (Triamteren = TA) dem Patienten oral verabreicht und in geeignetem zeitlichen Abstand das Verhältnis TA zu OH-TA-Ester im Plasma und/oder im Urin des Patienten bestimmt. Bei normaler Leberfunktion beträgt das Verhältnis TA zu OH-TA-Ester 1:3 bis 1:10. […] Man findet demnach je nach Einschränkung der Leberfunktion mehr natives TA als OH-TA-Ester, was als eine direkte Auswirkung der gestörten Funktion der Leber zu metabolischer Umwandlung von körperfremden Stoffen im Organismus und damit als Indikator für die Leberfunktion überhaupt gewertet werden kann.
Die Verabreichung des Triamteren zur erfindungsgemäßen Bestimmung der Leberfunktionseinschränkung geschieht oral. Bei der Herstellung der Verabreichungsformen (Kapseln, Tabletten etc.) und der Verabreichung selbst, kann von den Erfahrungen mit Triamteren als Therapeutikum ausgegangen werden. Die zur Durchführung des erfindungsgemäßen diagnostischen Verfahrens benötigten Mengen an Triamteren können innerhalb gewisser Grenzen schwanken, beispielsweise zwischen 50 und 300 mg, vorzugsweise bis 100 mg. Zur Einhaltung standardisierter Bedingungen kann es zweckmäßig sein, gleichbleibende Quantitäten an Triamteren zu verabreichen. Dabei kann vorteilhaft von bereits auf dem Markt befindlichen Handelsformen (z. B. Kapseln mit 50 mg Triamteren Jatropur^R) Gebrauch gemacht werden.
as §1
Die Plasmahalbwertszeiten wurden nach der Formel t50 % = [formula] berechnet, die Flächen unter den Kurven konnten mit Hilfe der Trapezregel errechnet werden. […]

half-life ([1]; Lebergesunde) [h] | half-life ([1]; Leberzirrhotiker, average) [h] | Ausscheidung im Harn beendet ([2]; in vivo) [Stunden] | Ausscheidung im Harn nicht völlig abgeschlossen ([2]; in vivo) [Tagen] | SMILES | Plasmahalbwertszeiten, change in Leberzirrhotiker versus Lebergesunde ([1]; Leberzirrhotiker compared with Lebergesunde) | Ausscheidung im Harn beendet ([2]; Lebergesunde, time after which excretion has ended) [Stunden] | Ausscheidung im Harn nicht völlig abgeschlossen ([2]; Leberzirrhotiker, excretion still not fully complete at this time) [Tagen] | Nachweis im Urin ([2]; patients' urine, test duration of 5 days) | Verhältnis des OH-TA-Esters zu TA ([3]; Lebergesunde) | Verhältnis des OH-TA-Esters zu TA ([3]; Leberzirrhotiker, ratio reversed in one cirrhotic) | Konzentration des OH-TA-Esters in Plasma höher als die der nativen Substanz Triamteren (TA) ([3]; subjects with healthy liver, plasma, fold over TA)
– | – | – | – | Nc1nc(N)c2nc(-c3ccc(OS(=O)(=O)O)cc3)c(N)nc2n1 [OH-TA-Ester] | auf das Doppelte verlängert; also recorded: deutlich erhöht, beispielsweise verdoppelt | 72 | > 5 | nachgewiesen | 4-10 | 1-3,2 | vier- bis zwölffache
~5.5 | 11.2 | 72 | > 5 | Nc1nc(N)c2nc(-c3ccccc3)c(N)nc2n1 [TA, 2,4,7-Triamino-6-phenylpteridin] | – | – | – | – | – | – | –
